# Experimental data from ChEMBL document CHEMBL1201862, “PubChem BioAssay data set” (2004).
#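 A five-concentration, 48-hour dose response in 96-well plates underlies each endpoint, interpolated linearly between surrounding concentrations. Here, GI50 denotes the concentration required for 50% inhibition of growth.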 The source made the active and inactive calls. Cut-off read from the data, not from the text of the source: active = GI50 up to about 1.1 µM and inactive = higher. *1 amine or outer side, *2 acyl side, *3 side chain or, on linkers, in order; H or OH if unused. Where a SMILES comes first, the peptide text is derived from it. Bridges are numbered along the chain shown (N, C = ends). [ ]: non-standard residue; d: D form. The star is where a group is joined. ξ: configuration not given here. ξOrn(4,5-diOH) = O=C(C(CC(O)C(O)N[*:3])N[*:1])[*:2]; ξhTyr(βξ-OH,γξ-OH) = NC(C(=O)O)C(O)C(O)c1ccc(O)cc1; ξPro(3ξ-OH,4ξ-Me) = CC1CNC(C(=O)O)C1O; X55 = CCCCC/C=C/C/C=C\CCCCCCCC(=O)*; Hyp = O=C(O)[CH]1C[CH](O)CN1
# What was measured:
# Experiment in all cases: growth of human tumour cells (NCI), 48 h
# 786-0 = tested on: 786-0
# A498 = tested on: A498
# CCRF-CEM = tested on: CCRF-CEM
# EKVX = tested on: EKVX
# HCC 2998 = tested on: HCC 2998
# HOP-62 = tested on: HOP-62
# LOX IMVI = tested on: LOX IMVI
# NCI-H460 = tested on: NCI-H460
# OVCAR-5 = tested on: OVCAR-5
# RPMI-8226 = tested on: RPMI-8226
# SF-539 = tested on: SF-539
# SK-MEL-2 = tested on: SK-MEL-2
# SN12C = tested on: SN12C
# SNB-19 = tested on: SNB-19
# U-251 = tested on: U-251
# UO-31 = tested on: UO-31
# MCF7 = tested on: MCF7
# MDA-MB-231 = tested on: MDA-MB-231
# T47D = tested on: T47D
# Hs-578T = tested on: Hs-578T
Compound,GI50 (786-0),GI50 (A498),GI50 (CCRF-CEM),GI50 (EKVX),GI50 (HCC 2998),GI50 (HOP-62),GI50 (LOX IMVI),GI50 (NCI-H460),GI50 (OVCAR-5),GI50 (RPMI-8226),GI50 (SF-539),GI50 (SK-MEL-2),GI50 (SN12C),GI50 (SNB-19),GI50 (U-251),GI50 (UO-31),GI50 (MCF7),GI50 (MDA-MB-231),GI50 (T47D),GI50 (Hs-578T)
N#CCCN(CCC#N)c1ccc(/C=C2\N=C(COc3ccc(Cl)cc3Cl)OC2=O)cc1,> 100 µM (inactive),> 100 µM (inactive),> 100 µM (inactive),> 100 µM (inactive),> 100 µM (inactive),> 100 µM (inactive),> 100 µM (inactive),> 100 µM (inactive),> 100 µM (inactive),> 100 µM (inactive),> 100 µM (inactive),> 100 µM (inactive),> 100 µM (inactive),> 100 µM (inactive),> 100 µM (inactive),> 100 µM (inactive),–,–,–,–
CC1(C)C2CCC13C(=O)C1OC3(C2)C2C(=O)N(c3ccccc3)C(=O)C12 (stereo not drawn),> 100 µM (inactive),> 100 µM (inactive),> 100 µM (inactive),> 100 µM (inactive),> 100 µM (inactive),> 100 µM (inactive),> 100 µM (inactive),> 100 µM (inactive),> 100 µM (inactive),> 100 µM (inactive),> 100 µM (inactive),> 100 µM (inactive),> 100 µM (inactive),> 100 µM (inactive),> 100 µM (inactive),> 100 µM (inactive),–,–,–,–
c1ccc2c(c1)SCCCS2,> 100 µM (inactive),–,> 100 µM (inactive),> 100 µM (inactive),> 100 µM (inactive),> 100 µM (inactive),> 100 µM (inactive),> 100 µM (inactive),> 100 µM (inactive),–,> 100 µM (inactive),–,> 100 µM (inactive),> 100 µM (inactive),> 100 µM (inactive),> 100 µM (inactive),> 100 µM (inactive),> 100 µM (inactive),> 100 µM (inactive),–
CC(C)(Cc1ccccc1)Cc1cc(O)ccc1O,12.7 µM (inactive),22 µM (inactive),4.49 µM (inactive),24.9 µM (inactive),20 µM (inactive),30.1 µM (inactive),13.3 µM (inactive),16.6 µM (inactive),30.8 µM (inactive),–,13 µM (inactive),–,16.7 µM (inactive),17.7 µM (inactive),15.2 µM (inactive),13.4 µM (inactive),23.4 µM (inactive),20 µM (inactive),5.9 µM (inactive),–
NC(=O)C1Cc2cc3c(cc21)OCO3 (stereo not drawn),> 100 µM (inactive),–,–,> 100 µM (inactive),> 100 µM (inactive),> 100 µM (inactive),> 100 µM (inactive),> 100 µM (inactive),> 100 µM (inactive),–,> 100 µM (inactive),–,–,> 100 µM (inactive),–,> 100 µM (inactive),> 100 µM (inactive),> 100 µM (inactive),–,> 100 µM (inactive)
N#Cc1c(-c2ccccc2)[nH]c2ccccc2c1=O,> 100 µM (inactive),> 100 µM (inactive),> 100 µM (inactive),> 100 µM (inactive),> 10 µM (inactive),27.7 µM (inactive),> 100 µM (inactive),> 100 µM (inactive),> 100 µM (inactive),–,> 100 µM (inactive),39.6 µM (inactive),95.7 µM (inactive),22.8 µM (inactive),–,> 10 µM (inactive),67 µM (inactive),26.2 µM (inactive),–,19.2 µM (inactive)
CC1=NNC(=O)C1C(CC(=O)c1c[nH]c2ccccc12)C(=O)O (stereo not drawn),> 100 µM (inactive),> 100 µM (inactive),28.6 µM (inactive),> 100 µM (inactive),–,> 100 µM (inactive),97.3 µM (inactive),> 100 µM (inactive),> 100 µM (inactive),35.1 µM (inactive),> 100 µM (inactive),> 100 µM (inactive),> 100 µM (inactive),> 100 µM (inactive),> 100 µM (inactive),64.3 µM (inactive),–,> 100 µM (inactive),76 µM (inactive),> 100 µM (inactive)
O=S(=O)(O)c1cc(O)c2c(/N=C\c3ccccc3O)cc(S(=O)(=O)O)cc2c1,> 100 µM (inactive),> 100 µM (inactive),> 100 µM (inactive),> 100 µM (inactive),> 100 µM (inactive),> 100 µM (inactive),> 100 µM (inactive),> 100 µM (inactive),> 100 µM (inactive),> 100 µM (inactive),> 100 µM (inactive),> 100 µM (inactive),> 100 µM (inactive),> 100 µM (inactive),> 100 µM (inactive),> 100 µM (inactive),> 100 µM (inactive),> 100 µM (inactive),82.6 µM (inactive),–
"CCCCC/C=C/C/C=C\CCCCCCCC(=O)NC1CC(O)C(O)NC(=O)C2C(O)C(C)CN2C(=O)C(C(C)O)NC(=O)C(C(O)C(O)c2ccc(O)cc2)NC(=O)C2CC(O)CN2C(=O)C(C(C)O)NC1=O (stereo not drawn) (X55-[ξOrn(4,5-diOH)]T[Hyp][ξhTyr(βξ-OH,γξ-OH)]T[ξPro(3ξ-OH,4ξ-Me)]; lactam 1-C; configuration not given here)",> 100 µM (inactive),–,> 100 µM (inactive),> 100 µM (inactive),> 100 µM (inactive),> 100 µM (inactive),> 100 µM (inactive),> 100 µM (inactive),> 100 µM (inactive),> 100 µM (inactive),> 100 µM (inactive),> 100 µM (inactive),> 100 µM (inactive),> 100 µM (inactive),> 100 µM (inactive),> 100 µM (inactive),–,> 100 µM (inactive),> 100 µM (inactive),> 100 µM (inactive)
O=C1[C@H]2ON(c3ccccc3)C(c3ccccc3Cl)[C@H]2C(=O)N1c1ccc(Cc2ccc(N3C(=O)[C@@H]4ON(c5ccccc5)C(c5ccccc5Cl)[C@@H]4C3=O)cc2)cc1 (stereo partly drawn),> 100 µM (inactive),> 100 µM (inactive),> 100 µM (inactive),> 100 µM (inactive),> 100 µM (inactive),> 100 µM (inactive),> 100 µM (inactive),> 100 µM (inactive),> 100 µM (inactive),> 100 µM (inactive),> 100 µM (inactive),> 100 µM (inactive),> 100 µM (inactive),> 100 µM (inactive),> 100 µM (inactive),> 100 µM (inactive),–,–,–,–
O=C(CCN1CCCCC1CCO)Nc1ccc2c(c1)C(=O)c1ccc(NC(=O)CCN3CCCCC3CCO)cc1C2=O (stereo not drawn),1.97 µM (inactive),1.86 µM (inactive),2.62 µM (inactive),7.41 µM (inactive),0.0418 µM (active),4.35 µM (inactive),2.99 µM (inactive),3.6 µM (inactive),17.7 µM (inactive),4.45 µM (inactive),2.1 µM (inactive),2.49 µM (inactive),3.67 µM (inactive),6.07 µM (inactive),4.08 µM (inactive),> 100 µM (inactive),–,–,–,–
COC(=O)C(=O)C(C(=O)C=C(C)C)C(=O)C(=O)Nc1ccc(Cl)cc1C (stereo not drawn),> 100 µM (inactive),> 100 µM (inactive),87.5 µM (inactive),> 100 µM (inactive),> 100 µM (inactive),> 100 µM (inactive),> 100 µM (inactive),> 100 µM (inactive),> 100 µM (inactive),70 µM (inactive),> 100 µM (inactive),> 100 µM (inactive),> 100 µM (inactive),> 100 µM (inactive),> 100 µM (inactive),> 100 µM (inactive),–,–,–,–
COC1=C(C)C(=O)c2c(cc3c(c2O)C(C)(CCC=C(C)C)C(C)O3)C1=O (stereo not drawn),> 100 µM (inactive),16.3 µM (inactive),> 100 µM (inactive),> 100 µM (inactive),42.1 µM (inactive),18.2 µM (inactive),18.2 µM (inactive),14.1 µM (inactive),> 100 µM (inactive),> 100 µM (inactive),> 100 µM (inactive),30.2 µM (inactive),33.5 µM (inactive),19.2 µM (inactive),> 44.6 µM (inactive),> 100 µM (inactive),–,–,–,–
O=c1cc(NNc2cccc(F)c2)[nH]c(=S)[nH]1,44.3 µM (inactive),> 100 µM (inactive),–,> 100 µM (inactive),63.4 µM (inactive),> 100 µM (inactive),49.3 µM (inactive),> 100 µM (inactive),> 100 µM (inactive),42.4 µM (inactive),> 100 µM (inactive),–,> 100 µM (inactive),> 100 µM (inactive),54.6 µM (inactive),> 100 µM (inactive),61.5 µM (inactive),> 100 µM (inactive),–,> 100 µM (inactive)
CO/C(=N\N=C\c1ccc(C(F)(F)F)cc1)c1ccncc1,> 10 µM (inactive),–,> 10 µM (inactive),> 10 µM (inactive),> 10 µM (inactive),> 10 µM (inactive),> 10 µM (inactive),> 10 µM (inactive),> 10 µM (inactive),> 10 µM (inactive),–,> 10 µM (inactive),> 10 µM (inactive),> 10 µM (inactive),> 10 µM (inactive),> 10 µM (inactive),> 10 µM (inactive),> 10 µM (inactive),> 10 µM (inactive),–
COc1ccc(NCn2nc(CCCCCCCCc3nn(CNc4ccc(OC)cc4)c(=S)o3)oc2=S)cc1,> 100 µM (inactive),> 100 µM (inactive),–,> 100 µM (inactive),> 100 µM (inactive),> 100 µM (inactive),–,> 100 µM (inactive),> 100 µM (inactive),> 100 µM (inactive),–,> 100 µM (inactive),> 100 µM (inactive),> 100 µM (inactive),> 100 µM (inactive),> 100 µM (inactive),> 100 µM (inactive),> 100 µM (inactive),–,–
